Assay [1] deals with T1, COPZ1 (endogenous, in EV-A71-infected RD cells) (Homo sapiens, UniProt P61923).
T1 sequence (P61923 1-177): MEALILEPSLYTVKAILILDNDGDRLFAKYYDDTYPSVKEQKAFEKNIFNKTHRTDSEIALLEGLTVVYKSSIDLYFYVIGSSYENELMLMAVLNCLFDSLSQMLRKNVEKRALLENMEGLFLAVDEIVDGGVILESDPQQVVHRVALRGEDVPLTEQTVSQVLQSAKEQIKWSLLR
Kind of assay: competition against MPA-P photoaffinity labelling, pulldown / western blot. The class given is cell-based. To be noted: competitor of photoaffinity probe MPA-P. In general terms: Immunoblotting shows a protein as a band on a membrane.

In assay [2] the target is T2, COPZ1^7-150 (truncated human coatomer subunit zeta-1) (Homo sapiens, UniProt P61923).
T2 construct: E. coli BL21(DE3), pET-28a(+)
T2 sequence (P61923 7-150): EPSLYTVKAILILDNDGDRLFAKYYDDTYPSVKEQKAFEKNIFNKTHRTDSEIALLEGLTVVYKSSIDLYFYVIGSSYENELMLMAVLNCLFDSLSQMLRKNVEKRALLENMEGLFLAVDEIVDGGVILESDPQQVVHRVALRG
The experiment in a line: SPR, CM5 chip, COPZ1 immobilised. The class given is binding. On the technique in general: Surface plasmon resonance follows binding to a sensor surface in real time, without labels.

Assay [3] concerns the target T2, COPZ1^7-150 (truncated human coatomer subunit zeta-1). Kind of assay: fluorescence thermal shift assay (Sypro Orange). In kind it is binding. The note with it: 10 µM compound; 4 µM protein; 20 mM HEPES, 150 mM NaCl, pH 7.5.
The target in assay [4] is T1, COPZ1 (endogenous, in EV-A71-infected RD cells). The experiment in a line: photoaffinity labelling in cells, pulldown / western blot. In kind it is cell-based. The note with it: covalent (diazirine photo-crosslinking, 365 nm).

Experimental findings from PMC11151152, “Chemoproteomics enables identification of coatomer subunit zeta‐1 targeted by a small molecule for enterovirus A71 inhibition” (MedComm, 2024) are described below.

As a reminder, the Kd is the concentration at which binding is half-saturated. Read a low Kd as a tighter complex.

As for `O=C(c1ccc(C(F)(F)F)cc1O)c1[nH]c(Cl)c(Cl)c1-n1c(C(=O)c2ccc(C(F)(F)F)cc2O)cc(Cl)c1Cl` [MPA-CF3], the “competition against MPA-P photoaffinity labelling, pulldown / western blot” value in assay [1] is “implying that MPA‐CF3 specifically binds to COPZ1 in intact cells”. The compound further showed a Kd in assay [2] of 0.024 µM. For the same compound, the ΔT m in assay [3] was −3.6 °C.

For the compound `C#CCCC1(CCSc2c(Cl)cc(C(=O)c3ccc(C(F)(F)F)cc3O)n2-c2c(C(=O)c3ccc(C(F)(F)F)cc3O)[nH]c(Cl)c2Cl)N=N1` [MPA-P], the “photoaffinity labelling in cells, pulldown / western blot” value in assay [4] is “labeling intensity of COPZ1 by MPA‐P in EV‐A71‐infected RD cells”.
